biological target: T1, human mPGES-1 (Homo sapiens, UniProt O14684); experiment: Test for mPGES-1 inhibitory activity (microsomal enzyme, PGE2 EIA); assay type: biochemical; settings: microsomes of COS-1 cells transfected with human mPGES-1 cDNA; PGH2 1 μM; 4° C., 4 minutes; PGE2 by EIA; read-out: h mPGES1 IC50
T1 construct: made in house; host or cells: COS-1 cells (transient transfection; microsomal fraction used as enzyme)
T1 sequence (O14684 1-152): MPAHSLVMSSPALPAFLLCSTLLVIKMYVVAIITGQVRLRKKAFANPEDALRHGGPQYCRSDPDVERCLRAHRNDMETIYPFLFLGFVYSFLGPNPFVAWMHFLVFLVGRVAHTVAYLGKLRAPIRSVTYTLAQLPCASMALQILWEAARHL
Outline: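 Enzyme source was microsomes from COS-1 cells transiently expressing human mPGES-1, in sodium phosphate pH 7.2 with 2.5 mM GSH, 1 mM EDTA and 2% DMSO final. After a 15 min preincubation with compound at 4 °C, 1 μM PGH2 (final) reacted for 4 min at 4 °C.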

Compound	IC50
Cc1cc(=O)[nH]c(-c2c(C(F)(F)F)ccc(CNC(=O)[C@H]3C[C@H](OCc4cccc(C(F)(F)F)c4)C3)c2F)n1 [Example 182, trans-N-[2-fluoro-3-(4-methyl-6-oxo-1,6-dihydropyrimidin-2-yl)-4-(trifluoromethyl)benzyl]-3-{[3-(trifluoromethyl)benzyl]oxy}cyclobutane-1-carboxamide]	12 nM
Cc1cc(=O)[nH]c(-c2c(C(F)(F)F)ccc(CNC(=O)[C@H]3C[C@H](OCc4ccc(C(F)(F)F)cc4)C3)c2F)n1 [Example 183, trans-N-[2-fluoro-3-(4-methyl-6-oxo-1,6-dihydropyrimidin-2-yl)-4-(trifluoromethyl)benzyl]-3-{[4-(trifluoromethyl)benzyl]oxy}cyclobutane-1-carboxamide]	10 nM
Cc1cc(=O)[nH]c(-c2c(C(F)(F)F)ccc(CNC(=O)[C@H]3C[C@H](OCc4ccc(F)cc4F)C3)c2F)n1 [Example 184, trans-3-[(2,4-difluorobenzyl)oxy]-N-[2-fluoro-3-(4-methyl-6-oxo-1,6-dihydropyrimidin-2-yl)-4-(trifluoromethyl)benzyl]cyclobutane-1-carboxamide]	< 1 nM
Cc1cc(=O)[nH]c(-c2c(C(F)(F)F)ccc(CNC(=O)[C@H]3C[C@H](OCc4ccc(F)c(F)c4)C3)c2F)n1 [Example 186, trans-3-[(3,4-difluorobenzyl)oxy]-N-[2-fluoro-3-(4-methyl-6-oxo-1,6-dihydropyrimidin-2-yl)-4-(trifluoromethyl)benzyl]cyclobutane-1-carboxamide]	3.2 nM
Cc1cc(=O)[nH]c(-c2c(C(F)(F)F)ccc(CNC(=O)[C@H]3C[C@H](OCc4cccc(F)c4F)C3)c2F)n1 [Example 189, trans-3-[(2,3-difluorobenzyl)oxy]-N-[2-fluoro-3-(4-methyl-6-oxo-1,6-dihydropyrimidin-2-yl)-4-(trifluoromethyl)benzyl]cyclobutane-1-carboxamide]	13 nM
Cc1cc(=O)[nH]c(-c2c(C(F)(F)F)ccc(CNC(=O)[C@H]3C[C@H](OCc4cccc(Cl)c4F)C3)c2F)n1 [Example 191, trans-3-[(3-chloro-2-fluorobenzyl)oxy]-N-[2-fluoro-3-(4-methyl-6-oxo-1,6-dihydropyrimidin-2-yl)-4-(trifluoromethyl)benzyl]cyclobutane-1-carboxamide]	< 1 nM
Cc1cc(=O)[nH]c(-c2c(C(F)(F)F)ccc(CNC(=O)[C@H]3C[C@H](OCc4cc(Cl)ccc4F)C3)c2F)n1 [Example 192, trans-3-[(5-chloro-2-fluorobenzyl)oxy]-N-[2-fluoro-3-(4-methyl-6-oxo-1,6-dihydropyrimidin-2-yl)-4-(trifluoromethyl)benzyl]cyclobutane-1-carboxamide]	< 1 nM
Cc1cc(=O)[nH]c(-c2c(C(F)(F)F)ccc(CNC(=O)[C@H]3C[C@H](OCc4ccc(F)c(Cl)c4)C3)c2F)n1 [Example 193, trans-3-[(3-chloro-4-fluorobenzyl)oxy]-N-[2-fluoro-3-(4-methyl-6-oxo-1,6-dihydropyrimidin-2-yl)-4-(trifluoromethyl)benzyl]cyclobutane-1-carboxamide]	< 1 nM
Cc1cc(=O)[nH]c(-c2c(C(F)(F)F)ccc(CNC(=O)[C@H]3C[C@H](OCc4cc(F)cc(Cl)c4)C3)c2F)n1 [Example 194, trans-3-[(3-chloro-5-fluorobenzyl)oxy]-N-[2-fluoro-3-(4-methyl-6-oxo-1,6-dihydropyrimidin-2-yl)-4-(trifluoromethyl)benzyl]cyclobutane-1-carboxamide]	3.6 nM
CCc1cc(=O)[nH]c(-c2c(C(F)(F)F)ccc(CNC(=O)[C@H]3C[C@H](OCc4ccccc4Cl)C3)c2F)n1 [Example 195, trans-3-[(2-chlorobenzyl)oxy]-N-[3-(4-ethyl-6-oxo-1,6-dihydropyrimidin-2-yl)-2-fluoro-4-(trifluoromethyl)benzyl]cyclobutane-1-carboxamide]	< 1 nM
CCc1cc(=O)[nH]c(-c2c(C(F)(F)F)ccc(CNC(=O)[C@H]3C[C@H](OCc4ccc(Cl)cc4)C3)c2F)n1 [Example 197, trans-3-[(4-chlorobenzyl)oxy]-N-[3-(4-ethyl-6-oxo-1,6-dihydropyrimidin-2-yl)-2-fluoro-4-(trifluoromethyl)benzyl]cyclobutane-1-carboxamide]	3.7 nM
CCc1cc(=O)[nH]c(-c2c(C(F)(F)F)ccc(CNC(=O)[C@H]3C[C@H](OCc4ccccc4C(F)(F)F)C3)c2F)n1 [Example 198, trans-N-[3-(4-ethyl-6-oxo-1,6-dihydropyrimidin-2-yl)-2-fluoro-4-(trifluoromethyl)benzyl]-3-{[2-(trifluoromethyl)benzyl]oxy}cyclobutane-1-carboxamide]	1.4 nM
CCc1cc(=O)[nH]c(-c2c(C(F)(F)F)ccc(CNC(=O)[C@H]3C[C@H](OCc4cccc(C(F)(F)F)c4)C3)c2F)n1 [Example 199, trans-N-[3-(4-ethyl-6-oxo-1,6-dihydropyrimidin-2-yl)-2-fluoro-4-(trifluoromethyl)benzyl]-3-{[3-(trifluoromethyl)benzyl]oxy}cyclobutane-1-carboxamide]	1.1 nM
CCc1cc(=O)[nH]c(-c2c(C(F)(F)F)ccc(CNC(=O)[C@H]3C[C@H](OCc4ccc(C(F)(F)F)cc4)C3)c2F)n1 [Example 200, trans-N-[3-(4-ethyl-6-oxo-1,6-dihydropyrimidin-2-yl)-2-fluoro-4-(trifluoromethyl)benzyl]-3-{[4-(trifluoromethyl)benzyl]oxy}cyclobutane-1-carboxamide]	6.5 nM
CCc1cc(=O)[nH]c(-c2c(C(F)(F)F)ccc(CNC(=O)[C@H]3C[C@H](OCc4ccc(F)c(F)c4)C3)c2F)n1 [Example 203, trans-3-[(3,4-difluorobenzyl)oxy]-N-[3-(4-ethyl-6-oxo-1,6-dihydropyrimidin-2-yl)-2-fluoro-4-(trifluoromethyl)benzyl]cyclobutane-1-carboxamide]	< 1 nM
CCc1cc(=O)[nH]c(-c2c(C(F)(F)F)ccc(CNC(=O)[C@H]3C[C@H](OCc4cccc(F)c4)C3)c2F)n1 [Example 205, trans-N-[3-(4-ethyl-6-oxo-1,6-dihydropyrimidin-2-yl)-2-fluoro-4-(trifluoromethyl)benzyl]-3-[(3-fluorobenzyl)oxy]cyclobutane-1-carboxamide]	14 nM
CCc1cc(=O)[nH]c(-c2c(C(F)(F)F)ccc(CNC(=O)[C@H]3C[C@H](OCc4cccc(F)c4F)C3)c2F)n1 [Example 206, trans-3-[(2,3-difluorobenzyl)oxy]-N-[3-(4-ethyl-6-oxo-1,6-dihydropyrimidin-2-yl)-2-fluoro-4-(trifluoromethyl)benzyl]cyclobutane-1-carboxamide]	15 nM

The remaining lines, values ahead:

IC50	Compound
1.2 nM	Cc1cc(=O)[nH]c(-c2c(C(F)(F)F)ccc(CNC(=O)[C@H]3C[C@H](OCc4ccc(Cl)cc4F)C3)c2F)n1 [Example 185, trans-3-[(4-chloro-2-fluorobenzyl)oxy]-N-[2-fluoro-3-(4-methyl-6-oxo-1,6-dihydropyrimidin-2-yl)-4-(trifluoromethyl)benzyl]cyclobutane-1-carboxamide]
6.4 nM	Cc1cc(=O)[nH]c(-c2c(C(F)(F)F)ccc(CNC(=O)[C@H]3C[C@H](OCc4cc(F)cc(F)c4)C3)c2F)n1 [Example 187, trans-3-[(3,5-difluorobenzyl)oxy]-N-[2-fluoro-3-(4-methyl-6-oxo-1,6-dihydropyrimidin-2-yl)-4-(trifluoromethyl)benzyl]cyclobutane-1-carboxamide]
10 nM	Cc1cc(=O)[nH]c(-c2c(C(F)(F)F)ccc(CNC(=O)[C@H]3C[C@H](OCc4cccc(F)c4)C3)c2F)n1 [Example 188, trans-N-[2-fluoro-3-(4-methyl-6-oxo-1,6-dihydropyrimidin-2-yl)-4-(trifluoromethyl)benzyl]-3-[(3-fluorobenzyl)oxy]cyclobutane-1-carboxamide]
< 1 nM	Cc1cc(=O)[nH]c(-c2c(C(F)(F)F)ccc(CNC(=O)[C@H]3C[C@H](OCc4ccc(F)cc4Cl)C3)c2F)n1 [Example 190, trans-3-[(2-chloro-4-fluorobenzyl)oxy]-N-[2-fluoro-3-(4-methyl-6-oxo-1,6-dihydropyrimidin-2-yl)-4-(trifluoromethyl)benzyl]cyclobutane-1-carboxamide]
< 1 nM	CCc1cc(=O)[nH]c(-c2c(C(F)(F)F)ccc(CNC(=O)[C@H]3C[C@H](OCc4cccc(Cl)c4)C3)c2F)n1 [Example 196, trans-3-[(3-chlorobenzyl)oxy]-N-[3-(4-ethyl-6-oxo-1,6-dihydropyrimidin-2-yl)-2-fluoro-4-(trifluoromethyl)benzyl]cyclobutane-1-carboxamide]
< 1 nM	CCc1cc(=O)[nH]c(-c2c(C(F)(F)F)ccc(CNC(=O)[C@H]3C[C@H](OCc4ccc(F)cc4F)C3)c2F)n1 [Example 201, trans-3-[(2,4-difluorobenzyl)oxy]-N-[3-(4-ethyl-6-oxo-1,6-dihydropyrimidin-2-yl)-2-fluoro-4-(trifluoromethyl)benzyl]cyclobutane-1-carboxamide]
< 1 nM	CCc1cc(=O)[nH]c(-c2c(C(F)(F)F)ccc(CNC(=O)[C@H]3C[C@H](OCc4ccc(Cl)cc4F)C3)c2F)n1 [Example 202, trans-3-[(4-chloro-2-fluorobenzyl)oxy]-N-[3-(4-ethyl-6-oxo-1,6-dihydropyrimidin-2-yl)-2-fluoro-4-(trifluoromethyl)benzyl]cyclobutane-1-carboxamide]
13 nM	CCc1cc(=O)[nH]c(-c2c(C(F)(F)F)ccc(CNC(=O)[C@H]3C[C@H](OCc4cc(F)cc(F)c4)C3)c2F)n1 [Example 204, trans-3-[(3,5-difluorobenzyl)oxy]-N-[3-(4-ethyl-6-oxo-1,6-dihydropyrimidin-2-yl)-2-fluoro-4-(trifluoromethyl)benzyl]cyclobutane-1-carboxamide]

Reference: patent publication US20250340557A1, “PYRIMIDINE DERIVATIVE” (ASKA PHARMACEUTICAL CO., LTD., priority 2022, published 2025)
